Laboratory results from patent US20250282799A1, “SUBSTITUTED PYRIDO[4,3-d]PYRIMIDINES AS KRAS MODULATORS” (Alterome Therapeutics, Inc., priority 2023, published 2025).

Test system: KRAS G12V dependent lung adenocarcinoma cell line, NCI-H441
Assay: Cellular pERK (Thr202/Tyr204) FRET/HTRF assay
Assay type: cell-based
Conditions: Homo sapiens, NCI-H441, cellular pERK (Thr202/Tyr204) HTRF, NCI-H441 cells
Method in brief: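 NCI-H441 cells (KRAS G12V) plated overnight at 37 °C, then exposed to compounds for 1 hr at 37 °C, 5% CO2; DMSO as negative control. Lysates read by Eu-cryptate/d2 sandwich FRET (665 nm) for ERK1/2 phosphorylated at Thr202/Tyr204; IC50 from curve fit.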

| IC50 [nM] | SMILES |
| --- | --- |
| 50 to 500 | Cc1c(F)c(N)cc(-c2ncc3c(N4CCCC[C@H]5[C@H](F)[C@H]54)nc(OC[C@@]45CCCN4C/C(=C\F)C5)nc3c2F)c1C(F)(F)F [Example 398, 2-fluoro-5-(8-fluoro-4-((1S,7R,8S)-8-fluoro-2-azabicyclo[5.1.0]octan-2-yl)-2-(((S,Z)-2-(fluoromethylene)tetrahydro-1H-pyrrolizin-7a(5H)-yl)methoxy)pyrido[4,3-d]pyrimidin-7-yl)-3-methyl-4-(trifluoromethyl)aniline] |
| < 50 | [2H]C([2H])(Oc1nc(N2CCOC[C@H]3[C@H](F)[C@H]32)c2cnc(-c3cc(N)cc4ccc(F)c(C#C)c34)c(F)c2n1)C12CCCN1CCC2 [Example 213, 5-ethynyl-6-fluoro-4-(8-fluoro-4-((1S,7S,8S)-8-fluoro-5-oxa-2-azabicyclo[5.1.0]octan-2-yl)-2-((tetrahydro-1H-pyrrolizin-7a(5H)-yl)methoxy-d2)pyrido[4,3-d]pyrimidin-7-yl)naphthalen-2-amine] |
| < 50 | C#Cc1c(F)ccc2cc(N)cc(-c3ncc4c(N5CCOC[C@H]6[C@H](F)[C@H]65)nc(OC[C@]56C/C(=C\F)CN5CCC65CC5)nc4c3F)c12 [Example 362, 5-Ethynyl-6-fluoro-4-(8-fluoro-4-((1S,7S,8S)-8-fluoro-5-oxa-2-azabicyclo[5.1.0]octan-2-yl)-2-(((R,E)-6′-(fluoromethylene)tetrahydrospiro[cyclopropane-1,1′-pyrrolizin]-7a′(5′H)-yl)methoxy)pyrido[4,3-d]pyrimidin-7-yl)naphthalen-2-amine] |
| < 50 | C#Cc1c(F)ccc2cccc(-c3ncc4c(N5CCOC[C@H]6[C@H](F)[C@H]65)nc(OC[C@]56C/C(=C/F)CN5CCC65CC5)nc4c3F)c12 [Example 376, (1S,7S,8S)-2-(7-(8-Ethynyl-7-fluoronaphthalen-1-yl)-8-fluoro-2-(((R,Z)-6′-(fluoromethylene)tetrahydrospiro[cyclopropane-1,1′-pyrrolizin]-7a′(5′H)-yl)methoxy)pyrido[4,3-d]pyrimidin-4-yl)-8-fluoro-5-oxa-2-azabicyclo[5.1.0]octane] |
| 50 to 500 | [2H]C([2H])(Oc1nc(N2CCOC[C@H]3[C@H](F)[C@H]32)c2cnc(-c3nc(N)cc(C)c3C(F)(F)F)c(F)c2n1)[C@@]12CCCN1C[C@H](F)C2 [Example 186, 6-(8-fluoro-4-((1S,7S,8S)-8-fluoro-5-oxa-2-azabicyclo[5.1.0]octan-2-yl)-2-(((2R,7aS)-2-fluorotetrahydro-1H-pyrrolizin-7a(5H)-yl)methoxy-d2)pyrido[4,3-d]pyrimidin-7-yl)-4-methyl-5-(trifluoromethyl)pyridin-2-amine] |
| < 50 | C#Cc1c(F)ccc2cc(N)cc(-c3ncc4c(N5CCOC[C@H]6[C@H](F)[C@H]65)nc(OC[C@@]56CCCN5C(C)(C)[C@H](F)C6)nc4c3F)c12 [Example 262, 5-ethynyl-6-fluoro-4-(8-fluoro-2-(((2R,7aS)-2-fluoro-3,3-dimethyltetrahydro-1H-pyrrolizin-7a(5H)-yl)methoxy)-4-((1S,7S,8S)-8-fluoro-5-oxa-2-azabicyclo[5.1.0]octan-2-yl)pyrido[4,3-d]pyrimidin-7-yl)naphthalen-2-amine] |
| 500 to 10000 | [2H]C([2H])(F)Oc1c(F)ccc2cncc(-c3ncc4c(N5CCOC[C@H]6[C@H](F)[C@H]65)nc(OC([2H])([2H])[C@@]56CCCN5C[C@H](F)C6)nc4c3F)c12 [Example 127, (1S,7S,8S)-8-Fluoro-2-(8-fluoro-7-(6-fluoro-5-(fluoromethoxy-d2)isoquinolin-4-yl)-2-(((2R,7aS)-2-fluorotetrahydro-1H-pyrrolizin-7a(5H)-yl)methoxy-d2)pyrido[4,3-d]pyrimidin-4-yl)-5-oxa-2-azabicyclo[5.1.0]octane] |
| < 50 | C#Cc1c(F)ccc2cc(N)cc(-c3ncc4c(N5CCOC[C@H]6[C@H](F)[C@H]65)nc(OC[C@@]56CCCN5C[C@H](C)C6)nc4c3F)c12 (single isomer, unassigned) [Example 208] |
| 50 to 500 | C#Cc1c(F)c(F)cc2cccc(-c3ncc4c(N5CCOC[C@H]6[C@H](F)[C@H]65)nc(OC[C@]56CCCN5CC(=C(F)F)C6)nc4c3F)c12 [Example 107, (1S,7S,8S)-2-(2-(((R)-2-(difluoromethylene)tetrahydro-1H-pyrrolizin-7a(5H)-yl)methoxy)-7-(8-ethynyl-6,7-difluoronaphthalen-1-yl)-8-fluoropyrido[4,3-d]pyrimidin-4-yl)-8-fluoro-5-oxa-2-azabicyclo[5.1.0]octane] |
| < 50 | [2H]C([2H])(Oc1nc(N2CCC=C[C@H]3[C@H](F)[C@H]32)c2cnc(-c3cc(N)cc4cc(F)c(F)c(C#C)c34)c(F)c2n1)[C@@]12CCCN1C[C@H](F)C2 [Example 94, 5-ethynyl-6,7-difluoro-4-(8-fluoro-4-((1S,7R,8S)-8-fluoro-2-azabicyclo[5.1.0]oct-5-en-2-yl)-2-(((2R,7aS)-2-fluorotetrahydro-1H-pyrrolizin-7a(5H)-yl)methoxy-d2)pyrido[4,3-d]pyrimidin-7-yl)naphthalen-2-amine] |
| < 50 | [2H]C([2H])(Oc1nc(N2CCOC[C@H]3[C@H](F)[C@H]32)c2cnc(-c3cc(N)cc4ccc(F)c(C#C)c34)c(F)c2n1)[C@@]12CCCN1[C@@H](C)[C@H](F)C2 [Example 334, 5-ethynyl-6-fluoro-4-(8-fluoro-2-(((2R,3S,7aS)-2-fluoro-3-methyltetrahydro-1H-pyrrolizin-7a(5H)-yl)methoxy-d2)-4-((1S,7S,8S)-8-fluoro-5-oxa-2-azabicyclo[5.1.0]octan-2-yl)pyrido[4,3-d]pyrimidin-7-yl)naphthalen-2-amine] |
| 50 to 500 | [2H]C([2H])(Oc1nc(N2CCCC[C@H]3[C@H](F)[C@H]32)c2cnc(-c3nc(N)cc4ccc(F)c(Cl)c34)c(F)c2n1)[C@@]12CCCN1C[C@H](F)C2 [Example 153, 8-chloro-7-fluoro-1-(8-fluoro-4-((1S,7R,8S)-8-fluoro-2-azabicyclo[5.1.0]octan-2-yl)-2-(((2R,7aS)-2-fluorotetrahydro-1H-pyrrolizin-7a(5H)-yl)methoxy-d2)pyrido[4,3-d]pyrimidin-7-yl)isoquinolin-3-amine] |
| < 50 | C#Cc1c(F)ccc2cc(N)cc(-c3ncc4c(N5CCOC[C@H]6[C@H](F)[C@H]65)nc(OC[C@@]56CCCN5C/C(=C/F)C6)nc4c3F)c12 [Example 161, 5-Ethynyl-6-fluoro-4-(8-fluoro-4-((1S,7S,8S)-8-fluoro-5-oxa-2-azabicyclo[5.1.0]octan-2-yl)-2-(((S,E)-2-(fluoromethylene)tetrahydro-1H-pyrrolizin-7a(5H)-yl)methoxy)pyrido[4,3-d]pyrimidin-7-yl)naphthalen-2-amine] |
| 500 to 10000 | C#Cc1c(F)ccc2cc(O)cc(-c3ncc4c(N5CCCO[C@@H]6C[C@@H]65)nc(OC[C@@]5(C)CCCN5)nc4c3F)c12 [Example 282, 4-(4-((1R,7S)-2-oxa-6-azabicyclo[5.1.0]octan-6-yl)-8-fluoro-2-(((R)-2-methylpyrrolidin-2-yl)methoxy)pyrido[4,3-d]pyrimidin-7-yl)-5-ethynyl-6-fluoronaphthalen-2-ol] |
| 500 to 10000 | [2H]C([2H])(Oc1nc(N2CCOC[C@@H]3[C@@H](F)[C@@H]32)c2cc(Cl)c(-c3cc(N)c(F)c(C)c3C(F)(F)F)c(F)c2n1)[C@@]12CCCN1C[C@H](F)C2 [Example 191, 5-(6-chloro-8-fluoro-4-((1R,7R,8R)-8-fluoro-5-oxa-2-azabicyclo[5.1.0]octan-2-yl)-2-(((2R,7aS)-2-fluorotetrahydro-1H-pyrrolizin-7a(5H)-yl)methoxy-d2)quinazolin-7-yl)-2-fluoro-3-methyl-4-(trifluoromethyl)aniline] |

Same assay, conditions: Homo sapiens, NCI-H441, cellular pERK HTRF, NCI-H441 (KRAS G12V) cells

| IC50 [nM] | SMILES |
| --- | --- |
| 500 to 10000 | C=C1CN2CCC[C@@]2(COc2nc(N3CCOC[C@H]4[C@H](F)[C@H]43)c3cc(C(F)(F)F)c(-c4ccc(F)c5sc(N)c(C#N)c45)c(F)c3n2)C1 (atropisomer, axis not shown) [Example 433, 2-amino-7-fluoro-4-((R)-8-fluoro-4-((1S,7S,8S)-8-fluoro-5-oxa-2-azabicyclo[5.1.0]octan-2-yl)-2-(((S)-2-methylenetetrahydro-1H-pyrrolizin-7a(5H)-yl)methoxy)-6-(trifluoromethyl)quinazolin-7-yl)benzo[b]thiophene-3-carbonitrile] |

Same assay, conditions: Homo sapiens, NCI-H441, pERK HTRF, NCI-H441 cells (KRAS G12V)

| IC50 [nM] | SMILES |
| --- | --- |
| 500 to 10000 | [2H]C([2H])(Oc1nc(N2CCCO[C@H]3[C@@H](F)[C@H]32)c2cnc(-c3cc(N)cc4cc(F)c(F)c(C#C)c34)c(F)c2n1)[C@@]12CCCN1C[C@H](F)C2 [Example 21, 5-Ethynyl-6,7-difluoro-4-(8-fluoro-4-((1R,7S,8S)-8-fluoro-2-oxa-6-azabicyclo[5.1.0]octan-6-yl)-2-(((2R,7aS)-2-fluorotetrahydro-1H-pyrrolizin-7a(5H)-yl)methoxy-d2)pyrido[4,3-d]pyrimidin-7-yl)naphthalen-2-amine] |
| < 50 | [2H]C([2H])([2H])Oc1c(F)c(F)cc2cc(N)cc(-c3ncc4c(N5CCCC[C@H]6[C@H](F)[C@H]65)nc(OC([2H])([2H])[C@@]56CCCN5C[C@H](F)C6)nc4c3F)c12 [Example 65, 6,7-Difluoro-4-(8-fluoro-4-((1S,7R,8S)-8-fluoro-2-azabicyclo[5.1.0]octan-2-yl)-2-(((2R,7aS)-2-fluorotetrahydro-1H-pyrrolizin-7a(5H)-yl)methoxy-d2)pyrido[4,3-d]pyrimidin-7-yl)-5-(methoxy-d3)naphthalen-2-amine] |
